Assay results from US11478441B2, “Treatment of disease with n-acetyl kynurenine” (AMPIO PHARMACEUTICALS, INC., priority 2016, dated 2022).

Assay: Colorimetric (Ehrlich's reagent) detection of kynurenine-like molecules; thermal forced degradation / storage
Format: physicochemical
Source text: The quantitation of kynurenine-like species in […] was detected using a modified method by Meyer et al. (“Suitability of recombinant Escherichia coli and Pseudomonas putida strains for selective biotransformation of m-nitrotoluene by xylene monooxygenase”, Appl Environ Microbiol 71 (2005) 6624-6632). The method is based on the reaction of p-dimethylamino-benzaldehyde (DMAB or Ehrlich's reagent) with primary aromatic amines to form yellow imines in acidic conditions. Briefly, […], […] or kynurenine standard (0-800 μM in 0.9% saline) was combined in triplicate with 100 μL Ehrlich's reagent in a 96-well plate. The plate was read at 492 nm using a SpectraMax M2 plate reader (Molecular Devices, Sunnyvale, Calif., USA). […] […] was incubated at ambient temperature or 80° C. for 6 days. Aliquots were collected at 0, 1, 2, 3, or 6 days and analyzed in triplicate for kynurenine-like molecules using the colorimetric assay described in Section 2.3. Also, 4 mM N-acetyl tryptophan in 0.9% saline was incubated at 80° C. for 6 days.

Compound: CC(=O)N[C@@H](Cc1c[nH]c2ccccc12)C(=O)O [NAT, N-acetyl tryptophan]
- concentration of kynurenine-like molecules (4 mM in 0.9% saline heated at 80° C. for 6 days): 11.6 µM
- levels of kynurenine-like molecules (4 mM in 0.9% saline, t=0): undetectable
